Measurements: patent US20100015042A1, “Combine radiation therapy and chemotherapy for treating cancer” (priority 2008, published 2010)

Tests used:
[1] = tested on: CT26 colon carcinoma tumors; test: Colon carcinoma tumor growth and cure, two 224Ra wires with 5-FU; format: in vivo, Balb/c mice; settings: 5-FU 75 mg/kg 24 hours prior to wires; tumors 6-7 mm in diameter
Method: FIG. 7 is a graph showing the effect of two ^224Ra-loaded wires combined with 5-FU treatment on colon cancers. Treatment was applied to Balb/c mice bearing 6-7 mm in diameter tumors. Two ^224Ra wires: Tumor bearing mice treated with 2 ^224Ra wires, carrying activities in the range of 27.9-35.5 kBq (n=5). Two ^224Ra wires combined with 5-FU: administration of 75 mg/kg 5-FU 24 hours prior to treatment with 2 ^224Ra wires, carrying activities in the range of 32.1-33.8 kBq (n=5). Two Inert wires combined with 5-FU: administration of 75 mg/kg 5-FU 24 hours prior to treatment with 2 inert wires (n=6). Two Inert wires: Tumor bearing mice treated with 2 inert wires (n=6).
Tumor cell inoculation: Animals were inoculated intra-cutaneously with 5·10^5 SQ2 cells in 0.2 ml HBSS or 10^5 (CT26 and Panc-02) in 0.1 ml of HBSS (Biological industries, Beit haemek, Israel) into the low lateral side of the back. Local tumor growth was determined by measuring three mutually orthogonal tumor diameters with a digital caliper (Mitutoyo, Japan). The volume of tumor was calculated using the formula: V=(π/6)·D1D2D3, where D1, D2, D3 stand for the measured diameters […]

SQ2 tumors = test: Tumor growth and survival, two 224Ra wires at the tumor base with two cisplatin doses; format: in vivo, BALB/c mice
Method: Tumor cell inoculation: Animals were inoculated intra-cutaneously with 5·10^5 SQ2 cells in 0.2 ml HBSS or 10^5 (CT26 and Panc-02) in 0.1 ml of HBSS (Biological industries, Beit haemek, Israel) into the low lateral side of the back. Local tumor growth was determined by measuring three mutually orthogonal tumor diameters with a digital caliper (Mitutoyo, Japan). The volume of tumor was calculated using the formula: V=(π/6)·D1D2D3, where D1, D2, D3 stand for the measured diameters
Wire insertion: Wires, either loaded with ^224Ra or inert, cut to a length of 5-6 mm, were placed near the tip of a 23G needle attached to a 2.5 ml syringe (Picindolor, Rome, Italy) and inserted into the tumor by a plunger placed internally along the syringe axis.
Statistical analysis: The statistical significance (p-value) of the differences between tumor volumes in the various groups was assessed by applying Student's two-sided t-test and repeated measures ANOVA. Survival analysis (Mantel-Cox test) was carried out using Statsoft Statistica 7.0.
The following experiment was performed in order to examine the effect of two ^224Ra wires inserted horizontally to the base of each tumor in combination with 2 doses of chemotherapy. The cisplatin was administered using the same regime as that described in Example 3.
A pronounced difference between tumor volumes of the irradiated group (^224Ra wires) and the animals treated with Cisplatin (CP) can be seen 10 days following DART treatment. […] Moreover, when analyzing the results of the group treated with the combination of Cisplatin and ^224Ra wires, it appears that a major growth inhibition was achieved when both modalities were administrated concomitantly. […] Twenty-four days following DART treatment, the average tumor volumes of the combined treatment group was 14 fold smaller compared to the inert control group (300 mm^3 and 4286 mm^3 respectively), and 3 fold smaller compared to the best effect achieved by the radioactive wires alone (924 mm^3). […]

SQ2 cells = test: XTT cell proliferation assay on radioactive (224Ra-implanted) microplates; format: cell-based, mouse
Method: Tumors: SQ2 cell line is a murine anaplastic cell line, which was generated from a SCC tumor that has developed spontaneously in a male BALB/c mouse. Panc02 is a murine pancreatic carcinoma cell line. CT26 cells is a N-nitroso-N-methylurethane-(NNMU) induced, undifferentiated colon carcinoma cell line which was purchased from the ATCC (CRL-2638). All cells were grown in Dulbecco's Modified Eagle Medium (DMEM) supplemented with 10% Fetal Calf Serum (Biological Industries, Beit Haemek, Israel), L-glutamine (2 mM), Penicillin (100 U/ml) and Streptomycin (100 μg/ml). […]
Cell proliferation assay: The antiproliferative effects of alpha particles and cisplatin, alone and in combination, were determined using a 3-bis (2-methoxy-4-nitro-5 sulfenyl)-(2H)-tetrazolium-5-carboxanilide (XTT) assay (Cell Proliferation Kit, Biological industries, Beit-haemek, Israel). […] After two hours of incubation, absorbance was analyzed using an automated spectrophotometer (VersaMax, Molecular Devices, USA) at 475 nm wavelength.
SQ2 cells were plated in 96 well plates implanted with ^224Ra atoms (0, 0.02, 0.063, 0.2, 0.63 and 2 Bq/mm^2, radioactive microplates). […] Cell numbers were assessed by the XTT assay 24, 48, and 72 hrs of incubation and expressed as percent of non-treated control cells.

[2] = tested on: lung metastases of SQ2 tumors; test: Histological assessment of lung metastatic load; format: in vivo, BALB/c mice; settings: treatment given alone, day 26, compared to inert wires
Method: Histology: Histological analysis was performed on BALB/c mice lungs, both treated and untreated. Immediately following their removal, lungs were fixed by a 4% formaldehyde solution (Sigma, Rehovot, Israel) for at least 24 hrs. The preserved specimens were embedded in paraffin, and sections (5-10 μm) were stained with hematoxylin-eosin (H&E) (Surgipath, Richmond, USA) and analyzed for metastases detection. Metastatic burden quantification was performed by summing the gray values of all the pixels in the region of interest (ROI) divided by the number of pixels using image J free software [http://rsbdotinfodotnihdotgov/ij/].
Histological assessment of lung sections was conducted in order to investigate the effect of the destruction of the primary tumor by DART wires on the development of metastases with or without the addition of cisplatin. Each 4 groups (Inert, ^224Ra wires, CP, CP+^224Ra wires) contained 3 animals. Animals were sacrificed at day 26 (lung metastases has been observed in this model at this time in previous studies) and lungs were harvested and processed for histological analysis and compared to normal lung tissues taken from healthy BALB/c mice. FIG. 5C describes the inhibition of lung metastatic load in mice treated with both intratumoral alpha irradiation and chemotherapy when compared to lungs of mice treated with inert wires.

SMILES	No. of animals with tumors following treatment [1]	average tumor volume, fold greater than the DART treated group (SQ2 tumors; 32 days after tumor cell inoculation, cisplatin 2 x 5 mg/kg vs two 224Ra wires) [fold]	prolongation of average survival compared to inert group (SQ2 tumors; two wires, cisplatin 2 x 5 mg/kg) [%]	mean survival (SQ2 tumors; two wires, cisplatin 2 x 5 mg/kg, inert control 43.92 days) [days]	proliferation inhibition (SQ2 cells; 0.3 μM cisplatin alone, 72 hours) [%]	antiproliferative effect (SQ2 cells; 3 and 30 μM, drug alone) [%]	effect on lung metastatic burden (in words) [2]
O=c1[nH]cc(F)c(=O)[nH]1 [Two inert wires and 5-FU, 5-fluorouracil]	6/6 with						
N.N.[Cl][Pt][Cl] [cisplatin]		2.14	17	51.38	21	> 60	decreased metastatic burden although less than the combined treatment
